# Measurements taken from patent US9624229B2, “Pyrimidine-2-amine compounds and their use as inhibitors of JAK kinases” (Rigel Pharmaceuticals, Inc., priority 2008, dated 2017).
# Like-named read-outs stand apart in the source and are kept apart here.
# Target: Ba/F3 V617F cells (Homo sapiens, UniProt O60674, V617F, cells depend on it)
# Assay: Proliferation assay (Cell Titer-Glo, 72 h) utilizing Ba/F3 V617F cells
# Type: cell-based, mouse
# Procedure, shortened: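 Readout is CellTiter-Glo luminescence after 72 h at 37 °C, giving IC50. Cells: Ba/F3 V617F, 1×10^5 cells/mL in RPMI with 10% FBS, treated in duplicate with 3-fold dilution series made from 5 mM DMSO stock, 1:250 in 5% FBS medium, added at 2×.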
# [1] = Ba/F3 V617F cells, proliferation, level of activity to inhibit JAK2, read-out: IC50 (the source's name)
# [2] = Ba/F3 V617F cells, proliferation, level of activity given as class symbol, read-out: IC50 (the source's name)
# [3] = inhibition of JAK2 activity, proliferation of Ba/F3 V617F cells, read-out: IC50 (the source's name)
# Ba/F3 V617F cells, sequence (O60674 whole entry V617F): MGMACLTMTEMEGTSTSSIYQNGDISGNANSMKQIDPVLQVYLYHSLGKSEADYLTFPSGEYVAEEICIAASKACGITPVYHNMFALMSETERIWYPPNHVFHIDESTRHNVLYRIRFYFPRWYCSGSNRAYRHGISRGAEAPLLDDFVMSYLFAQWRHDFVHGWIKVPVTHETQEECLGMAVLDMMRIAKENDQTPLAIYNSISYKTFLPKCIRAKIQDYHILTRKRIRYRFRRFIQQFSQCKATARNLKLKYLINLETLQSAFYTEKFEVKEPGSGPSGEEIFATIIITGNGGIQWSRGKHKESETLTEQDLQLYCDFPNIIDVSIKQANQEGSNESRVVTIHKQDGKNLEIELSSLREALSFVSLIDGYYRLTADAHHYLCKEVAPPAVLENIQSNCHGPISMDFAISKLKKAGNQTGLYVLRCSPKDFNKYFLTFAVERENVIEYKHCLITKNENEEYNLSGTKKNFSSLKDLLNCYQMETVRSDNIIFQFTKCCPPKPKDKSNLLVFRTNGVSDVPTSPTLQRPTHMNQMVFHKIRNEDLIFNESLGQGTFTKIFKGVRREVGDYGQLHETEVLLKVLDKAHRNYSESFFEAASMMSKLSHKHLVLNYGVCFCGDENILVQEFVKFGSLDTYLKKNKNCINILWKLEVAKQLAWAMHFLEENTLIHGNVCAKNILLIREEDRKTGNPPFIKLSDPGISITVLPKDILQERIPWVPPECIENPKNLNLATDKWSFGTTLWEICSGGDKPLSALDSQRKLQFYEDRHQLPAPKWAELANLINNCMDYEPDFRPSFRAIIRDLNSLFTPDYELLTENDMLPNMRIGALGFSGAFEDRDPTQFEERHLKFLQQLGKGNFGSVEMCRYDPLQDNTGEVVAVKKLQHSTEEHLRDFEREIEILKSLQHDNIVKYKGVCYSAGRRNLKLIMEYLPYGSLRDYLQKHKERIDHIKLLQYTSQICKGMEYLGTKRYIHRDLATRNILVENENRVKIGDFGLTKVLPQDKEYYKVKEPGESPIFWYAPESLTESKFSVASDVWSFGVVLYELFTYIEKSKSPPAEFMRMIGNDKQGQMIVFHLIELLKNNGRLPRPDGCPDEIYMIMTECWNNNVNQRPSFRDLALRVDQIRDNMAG
SMILES,GI50 [1] [nM],further results
"Cc1cc(Nc2nccc(-c3cnc4c(c3)OC(C)(C)C(=O)N4)n2)ccc1N1CC2CCC(C1)N2C [compound 165, 4-(2,2-dimethyl-3-oxo-3,4-dihydro-2H-pyrido[3,2-b][1,4]oxazin-7-yl)-N-(3-methyl-4-(8-methyl-3,8-diazabicyclo[3.2.1]octan-3-yl)phenyl)pyrimidin-2-amine]",< 1000,–
"Cc1cc(Nc2nccc(-c3cnc4c(c3)OCC(=O)N4)n2)ccc1N1C[C@@H]2C[C@H]1CN2C [compound 209, 4-(3-oxo-3,4-dihydro-2H-pyrido[3,2-b][1,4]oxazin-7-yl)-N-(3-methyl-4-((1S,4S)-5-methyl-2,5-diazabicyclo[2.2.1]heptan-2-yl)phenyl)pyrimidin-2-amine]",–,GI50 [2]: < 1000 nM
"Cc1cc(Nc2nccc(-c3cnc4[nH]c5c(c4c3)CCCC5)n2)ccc1N1C[C@@H]2C[C@H]1CN2S(C)(=O)=O [compound 268, 4-(6,7,8,9-tetrahydro-5H-pyrido[2,3-b]indol-3-yl)-N-(3-methyl-4-((1S,4S)-5-(methylsulfonyl)-2,5-diazabicyclo[2.2.1]heptan-2-yl)phenyl)pyrimidin-2-amine]",–,GI50 [2]: 1000 to 10000 nM
"CC(=O)N1CCN(c2ccc(-c3ccnc(Nc4ccc(N5C[C@@H]6C[C@H]5CN6C)c(F)c4)n3)cn2)CC1 [compound 16, 4-(6-(4-acetylpiperazin-1-yl)pyridin-3-yl)-N-(3-fluoro-4-((1S,4S)-5-methyl-2,5-diazabicyclo[2.2.1]heptan-2-yl)phenyl)pyrimidin-2-amine]",< 1000,–
"Cc1cc(Nc2nccc(-c3ccc(C(=O)Nc4ccccn4)cc3)n2)ccc1N1CCN2CCC1CC2 [compound 161, 4-(4-((pyridin-2-yl)aminocarbonyl)phenyl)-N-(3-methyl-4-(1,4-diazabicyclo[3.2.2]nonan-4-yl)phenyl)pyrimidin-2-amine]",< 1000,–
"Cc1cc(Nc2ncc(C(F)(F)F)c(-c3ccc(N(C)C)nc3)n2)ccc1N1C[C@@H]2C[C@H]1CN2C [compound 3, 4-(6-(N,N-dimethylamino)pyridin-3-yl)-5-trifluoromethyl-N-(3-methyl-4-((1S,4S)-5-methyl-2,5-diazabicyclo[2.2.1]heptan-2-yl)phenyl)pyrimidin-2-amine]",1000 to 10000,–
"CN(C)c1nc(-c2ccnc(Nc3ccc(N4C[C@@H]5C[C@H]4CN5C)nc3)n2)cs1 [compound 177, 4-(2-(dimethylamino)thiazol-4-yl)-N-(6-((1S,4S)-5-methyl-2,5-diazabicyclo[2.2.1]heptan-2-yl)pyridin-3-yl)pyrimidin-2-amine]",–,GI50 [3]: > 20000 nM
"Cc1cc(Nc2nccc(-c3cnc4c(c3)OCCN4C)n2)ccc1N1C[C@@H]2C[C@H]1CO2 [compound 195, 4-(4-methyl-3,4-dihydro-2H-pyrido[3,2-b][1,4]oxazin-7-yl)-N-(3-methyl-4-((1S,4S)-5-oxa-2-azabicyclo[2.2.1]heptan-2-yl)phenyl)pyrimidin-2-amine]",–,GI50 [2]: < 1000 nM
"Cc1cc(Nc2nccc(-c3ccc(N4C[C@@H](C)O[C@@H](C)C4)nc3)n2)ccc1N1C[C@@H]2C[C@H]1CN2C [compound 187, 4-(6-(cis-2,6-dimethylmorpholin-4-yl)pyridin-3-yl)-N-(3-methyl-4-((1S,4S)-5-methyl-2,5-diazabicyclo[2.2.1]heptan-2-yl)phenyl)pyrimidin-2-amine]",–,GI50 [2]: < 1000 nM
"Cc1cc(Nc2nccc(-c3ccc(N(C)C)cc3)n2)ccc1N1C[C@@H]2C[C@H]1CN2C [compound 14, 4-(4-(N,N-dimethylamino)phenyl)-N-(3-methyl-4-((1S,4S)-5-methyl-2,5-diazabicyclo[2.2.1]heptan-2-yl)phenyl)pyrimidin-2-amine]",< 1000,–
"Cc1cc(Nc2nccc(-c3ccc(N4CCOCC4)nc3)n2)ccc1N1C[C@@H]2C[C@H]1CN2S(C)(=O)=O [compound 192, 4-(6-(morpholin-4-yl)pyridin-3-yl)-N-(3-methyl-4-((1S,4S)-5-methylsulfonyl-2,5-diazabicyclo[2.2.1]heptan-2-yl)phenyl)pyrimidin-2-amine]",–,GI50 [2]: < 1000 nM
"CS(=O)(=O)N1CC2CC1CC2c1ccc(Nc2nccc(-c3ccc(N4CCOCC4)nc3)n2)cc1 (stereo not shown) [compound 227, 4-(6-(morpholin-4-yl)pyridin-3-yl)-N-(4-(2-methylsulfonyl-2-azabicyclo[2.2.1]heptan-5-yl)phenyl)pyrimidin-2-amine]",–,GI50 [2]: < 1000 nM
"Cc1cc(Nc2nccc(-c3ccc(NC4CCCCC4)nc3)n2)ccc1N1CC2(C)CN(C)CC(C)(C1)C2 [compound 77, 4-(6-(cyclohexylamino)pyridin-3-yl)-N-(3-methyl-4-(1,5,7-trimethyl-3,7-diazabicyclo[3.3.1]nonan-3-yl)phenyl)pyrimidin-2-amine]",< 1000,–
"CCC(=O)N1C[C@@H]2C[C@H]1CN2c1ccc(Nc2nccc(-c3ccc(NCCN4CCOCC4)nc3)n2)cc1C [compound 197, 4-(6-(2-(morpholin-4-yl)ethyl)aminopyridin-3-yl)-N-(3-methyl-4-((1S,4S)-5-ethylcarbonyl-2,5-diazabicyclo[2.2.1]heptan-2-yl)phenyl)pyrimidin-2-amine]",–,GI50 [2]: 1000 to 10000 nM
"Cc1cc(Nc2nccc(-c3ccc(NCCC(C)(C)C)nc3)n2)ccc1N1C[C@@H]2C[C@H]1CN2C [compound 218, 4-(6-(3,3-dimethylbutyl)aminopyridin-3-yl)-N-(3-methyl-4-((1S,4S)-5-methyl-2,5-diazabicyclo[2.2.1]heptan-2-yl)phenyl)pyrimidin-2-amine]",–,GI50 [2]: < 1000 nM
"CN1C[C@@H]2C[C@H]1CN2c1ccc(Nc2nccc(-c3cc[nH]c3)n2)cc1C(F)(F)F [compound 171, 4-(1H-pyrrol-3-yl)-N-(3-trifluoromethyl-4-((1S,4S)-5-methyl-2,5-diazabicyclo[2.2.1]heptan-2-yl)phenyl)pyrimidin-2-amine]",< 1000,–
"Cc1cc(Nc2nccc(-c3ccc(C(=O)Nc4ccccn4)cc3)n2)ccc1N1C[C@@H]2C[C@H]1CN2C [compound 134, 4-(4-((pyridin-2-yl)aminocarbonyl)phenyl)-N-(3-methyl-4-((1S,4S)-5-methyl-2,5-diazabicyclo[2.2.1]heptan-2-yl)phenyl)pyrimidin-2-amine]",< 1000,–
"CN1C[C@@H]2C[C@H]1CN2c1ccc(Nc2nccc(-c3ccc(N4CCOCC4)nc3)n2)cc1 [compound 184, 4-(6-(morpholin-4-yl)pyridin-3-yl)-N-(4-((1S,4S)-5-methyl-2,5-diazabicyclo[2.2.1]heptan-2-yl)phenyl)pyrimidin-2-amine]",< 1000,–
"CC(=O)Nc1ccc(-c2ccnc(Nc3cnc(N4C[C@@H]5C[C@H]4CN5C)c(C)c3)n2)cn1 [compound 146, 4-(6-(acetamido)pyridin-3-yl)-N-(5-methyl-6-((1S,4S)-5-methyl-2,5-diazabicyclo[2.2.1]heptan-2-yl)pyridin-3-yl)pyrimidin-2-amine]",–,GI50 [3]: 1000 to 10000 nM
"CN1C[C@@H]2C[C@H]1CN2c1ccc(Nc2nccc(-c3cnc4c(c3)OCCN4)n2)cc1F [compound 87, 4-(3,4-dihydro-2H-pyrido[3,2-b][1,4]oxazin-7-yl)-N-(3-fluoro-4-((1S,4S)-5-methyl-2,5-diazabicyclo[2.2.1]heptan-2-yl)phenyl)pyrimidin-2-amine]",< 1000,–

# Further lines, with some results ahead:
GI50 [1] [nM],SMILES,further results
< 1000,"Cc1cc(Nc2nccc(-c3ccc(N4CCOCC4)nc3)n2)ccc1N1CC2CCC(C1)N2C [compound 166, 4-(6-(morpholin-4-yl)pyridin-3-yl)-N-(3-methyl-4-(8-methyl-3,8-diazabicyclo[3.2.1]octan-3-yl)phenyl)pyrimidin-2-amine]",–
1000 to 10000,"Cc1cc(Nc2nccc(-c3ccc(C(=O)NC4=NCCS4)cc3)n2)ccc1N1C[C@@H]2C[C@H]1CN2C [compound 45, 4-(4-(4,5-dihydrothiazol-2-ylcarbamoyl)phenyl)-N-(3-methyl-4-((1S,4S)-5-methyl-2,5-diazabicyclo[2.2.1]heptan-2-yl)phenyl)pyrimidin-2-amine]",–
1000 to 10000,"Cc1cc(Nc2nccc(-c3csc(N(C)C)n3)n2)ccc1N1C[C@@H]2C[C@H]1CN2C [compound 175, 4-(2-(dimethylamino)thiazol-4-yl)-N-(3-methyl-4-((1S,4S)-5-methyl-2,5-diazabicyclo[2.2.1]heptan-2-yl)phenyl)pyrimidin-2-amine]",–
< 1000,"CCN1C[C@@H]2C[C@H]1CN2c1ccc(Nc2nccc(-c3ccc(N4CCOCC4)nc3)n2)cc1C [compound 25, 4-(6-(morpholin-4-yl)pyridin-3-yl)-N-(3-methyl-4-((1S,4S)-5-ethyl-2,5-diazabicyclo[2.2.1]heptan-2-yl)phenyl)pyrimidin-2-amine]",–
< 1000,"Cc1cc(Nc2nccc(-c3ccc(NC(=O)C(C)(C)C)cc3)n2)ccc1N1CC2CCC(C1)N2C [compound 168, 4-(4-(t-butylcarbonylamino)phenyl)-N-(3-methyl-4-(8-methyl-3,8-diazabicyclo[3.2.1]octan-3-yl)phenyl)pyrimidin-2-amine]",–
< 1000,"Cc1cc(Nc2nccc(-c3ccc(NC4CCCCC4)nc3)n2)ccc1N1C[C@@H]2C[C@H]1CN2C [compound 78, 4-(6-(cyclohexylamino)pyridin-3-yl)-N-(3-methyl-4-((1S,4S)-5-methyl-2,5-diazabicyclo[2.2.1]heptan-2-yl)phenyl)pyrimidin-2-amine]",–
< 1000,"Cc1cc(Nc2nccc(-c3ccc(N4CCOCC4)nc3)n2)ccc1N1C[C@H]2C[C@@H]1CN2C [compound 72, 4-(6-(morpholin-4-yl)pyridin-3-yl)-N-(3-methyl-4-((1R,4R)-5-methyl-2,5-diazabicyclo[2.2.1]heptan-2-yl)phenyl)pyrimidin-2-amine]",–
< 1000,"CN1C[C@@H]2C[C@H]1CN2c1ccc(Nc2nccc(-c3ccc(N4CCOCC4)nc3)n2)cc1C#N [compound 118, 4-(6-(morpholin-4-yl)pyridin-3-yl)-N-(3-cyano-4-((1S,4S)-5-methyl-2,5-diazabicyclo[2.2.1]heptan-2-yl)phenyl)pyrimidin-2-amine]",–
